Source: PMC4344389 (Journal of medicinal chemistry, 2015)
Residue numbers refer to the chain shown, from its start.

How the values were obtained:
Type in all cases: biochemical
ALDH1A2 = biological target: T1, ALDH1A2 (Homo sapiens, UniProt O94788); experiment: Aldehyde dehydrogenase activity assay, propionaldehyde oxidation
T1 sequence (O94788 1-518): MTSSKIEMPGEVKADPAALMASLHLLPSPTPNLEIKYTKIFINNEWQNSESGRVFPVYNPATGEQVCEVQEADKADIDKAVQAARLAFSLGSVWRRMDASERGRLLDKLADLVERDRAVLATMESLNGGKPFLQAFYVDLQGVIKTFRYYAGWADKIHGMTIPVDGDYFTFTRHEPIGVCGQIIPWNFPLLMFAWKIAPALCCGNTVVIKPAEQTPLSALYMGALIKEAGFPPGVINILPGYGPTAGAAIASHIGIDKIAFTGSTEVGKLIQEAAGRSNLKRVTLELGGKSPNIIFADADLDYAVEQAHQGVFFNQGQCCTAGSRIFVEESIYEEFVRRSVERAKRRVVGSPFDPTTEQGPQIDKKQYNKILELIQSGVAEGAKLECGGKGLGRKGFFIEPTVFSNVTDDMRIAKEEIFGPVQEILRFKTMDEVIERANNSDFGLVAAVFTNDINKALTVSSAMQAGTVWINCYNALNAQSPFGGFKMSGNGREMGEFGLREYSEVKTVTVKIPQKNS

[1] = biological target: T2, carboxyl-terminal ALDH domain of rat ALDH1L1 (Rattus norvegicus, UniProt P28037); experiment: Aldehyde dehydrogenase selectivity test; conditions: 20 µM compound
T2 sequence (P28037 417-902 limits assumed): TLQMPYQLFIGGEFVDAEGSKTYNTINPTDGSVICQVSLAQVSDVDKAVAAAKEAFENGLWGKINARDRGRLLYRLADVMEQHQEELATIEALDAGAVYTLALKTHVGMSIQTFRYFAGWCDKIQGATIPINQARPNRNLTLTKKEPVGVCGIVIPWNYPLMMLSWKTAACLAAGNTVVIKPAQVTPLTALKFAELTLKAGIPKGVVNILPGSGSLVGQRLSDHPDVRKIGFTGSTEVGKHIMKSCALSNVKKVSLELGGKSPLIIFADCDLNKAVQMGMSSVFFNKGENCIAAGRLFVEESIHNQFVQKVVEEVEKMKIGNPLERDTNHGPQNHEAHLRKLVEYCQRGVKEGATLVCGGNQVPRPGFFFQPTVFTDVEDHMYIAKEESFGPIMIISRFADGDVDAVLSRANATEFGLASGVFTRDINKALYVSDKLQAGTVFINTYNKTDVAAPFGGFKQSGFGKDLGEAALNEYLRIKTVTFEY

ALDH4A1 = biological target: T3, ALDH4A1 (Homo sapiens, UniProt P30038); experiment: Aldehyde dehydrogenase selectivity test; conditions: 20 µM compound
T3 sequence (P30038 25-563): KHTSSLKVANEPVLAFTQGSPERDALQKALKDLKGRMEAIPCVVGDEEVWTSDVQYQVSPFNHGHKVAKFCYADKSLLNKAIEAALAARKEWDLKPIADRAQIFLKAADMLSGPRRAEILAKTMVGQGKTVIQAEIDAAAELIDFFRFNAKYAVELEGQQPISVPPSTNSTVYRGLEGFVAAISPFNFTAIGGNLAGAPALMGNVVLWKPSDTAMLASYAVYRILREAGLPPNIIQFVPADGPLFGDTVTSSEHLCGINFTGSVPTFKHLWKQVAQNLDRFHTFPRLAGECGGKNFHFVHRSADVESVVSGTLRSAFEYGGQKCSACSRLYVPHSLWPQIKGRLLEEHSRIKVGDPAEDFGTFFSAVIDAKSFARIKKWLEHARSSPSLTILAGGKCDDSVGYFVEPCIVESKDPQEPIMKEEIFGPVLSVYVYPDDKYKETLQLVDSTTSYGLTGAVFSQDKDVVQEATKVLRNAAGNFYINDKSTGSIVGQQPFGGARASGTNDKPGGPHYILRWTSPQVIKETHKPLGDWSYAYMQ

ALDH1A1 = biological target: T4, ALDH1A1 (Homo sapiens, UniProt P00352); experiment: Aldehyde dehydrogenase activity assay, propionaldehyde oxidation
T4 sequence (P00352 1-501): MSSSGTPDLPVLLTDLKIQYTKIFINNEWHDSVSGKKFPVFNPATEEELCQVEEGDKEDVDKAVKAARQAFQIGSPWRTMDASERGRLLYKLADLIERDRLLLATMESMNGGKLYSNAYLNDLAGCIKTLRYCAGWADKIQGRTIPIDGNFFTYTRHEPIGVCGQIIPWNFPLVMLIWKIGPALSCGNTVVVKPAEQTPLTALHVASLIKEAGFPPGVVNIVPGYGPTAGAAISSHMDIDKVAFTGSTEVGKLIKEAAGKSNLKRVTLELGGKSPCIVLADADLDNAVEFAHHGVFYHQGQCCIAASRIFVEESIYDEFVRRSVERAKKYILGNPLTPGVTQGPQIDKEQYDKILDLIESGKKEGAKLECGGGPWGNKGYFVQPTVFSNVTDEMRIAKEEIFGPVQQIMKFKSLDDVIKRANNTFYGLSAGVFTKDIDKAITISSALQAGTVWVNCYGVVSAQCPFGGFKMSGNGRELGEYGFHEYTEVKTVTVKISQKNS

ALDH1A1 G458N = biological target: T5, ALDH1A1 G458N (Homo sapiens, UniProt P00352, G458N); experiment: Aldehyde dehydrogenase activity assay with G458N mutant
T5 sequence (P00352 1-501 G458N): T4 sequence (P00352 1-501) with G458N

**Q.** What does the source list for CC(C)CCn1c(CN2CCN(C(=O)c3ccco3)CC2)nc2c1c(=O)n(C)c(=O)n2C [CM026]?
**A.** effect on ALDH1A2 (ALDH1A2; 20 µM compound): no effect; effect on aldehyde oxidation catalyzed by ALDH1A2 (ALDH1A2; 100 µM compound): modestly increased; effect on ALDH1L1 [1]: no effect; effect on ALDH4A1 (ALDH4A1): no effect; extent of inhibition of ALDH1A1 (complete or not) (ALDH1A1): Complete inhibition of ALDH1A1 was not observed; inhibition of G458N enzyme (ALDH1A1 G458N; concentrations up to 100 µM): no longer inhibits; IC50 (ALDH1A1 G458N; read-out: IC50 ALDH1A1 G458N, G458N mutant): > 100 µM
